Source: patent US20260256792A1, “TREATMENT OF CHRONIC SPONTANEOUS URTICARIA BY ADMINISTERING (R)-2-[3-[4-AMINO-3-(2-FLUORO-4-PHENOXY-PHENYL)PYRAZOLO[3,4-D]PYRIMIDIN-1-YL]PIPERIDINE-1-CARBONYL]-4-METHYL-4-[4-(OXETAN-3-YL)PIPERAZIN-1-YL]PENT-2-ENENITRILE” (priority 2023, published 2026)

Tested on: angioedema in CSU patients
Test: Phase 2 CSU study: angioedema activity score over 7 days (AAS7)
Format: in vivo, human
Conditions: for Non-responder n (%), AAS7 = 0 / OR (95% CI) for rilzabrutinib vs. placebo, AAS7 = 0 / RRD (%) for rilzabrutinib vs. placebo (95% CI), AAS7 = 0 / Responder n (%), AAS7 = 0: outlier removed
Source text: The study comprises a 12 week, randomized, double-blind, placebo-controlled, multi-center, dose-ranging efficacy and safety phase, followed by a 40 week open label extension (OLE) phase (see FIG. 1). The study consists of three phases and an optional OLE phase. […] The weekly angioedema activity score (AAS7) was proposed as a tertiary endpoint. […] Patients were to complete the AAS using the e-diary. The e-diary was to be used once daily on the same time of each day recording of participant's answers to the angioedema activity score over 7 days (AAS7) questionnaire.

[1] = 400 mg TID, Week 1, ITT, angioedema at baseline
[2] = 400 mg TID, Week 1, omalizumab-naïve
[3] = 400 mg TID, Week 1, omalizumab-naïve, angioedema at baseline
[4] = 400 mg TID, Week 2, ITT, angioedema at baseline
[5] = 400 mg TID, Week 2, omalizumab-naïve
[6] = 400 mg TID, Week 2, omalizumab-naïve, angioedema at baseline
[7] = 400 mg TID, Week 3, ITT, angioedema at baseline
[8] = 400 mg TID, Week 3, omalizumab-naïve
[9] = 400 mg TID, Week 3, omalizumab-naïve, angioedema at baseline
[10] = 400 mg TID, Week 4, ITT, angioedema at baseline
[11] = 400 mg TID, Week 4, omalizumab-naïve

CC(C)(C=C(C#N)C(=O)N1CCC[C@@H](n2nc(-c3ccc(Oc4ccccc4)cc3F)c3c(N)ncnc32)C1)N1CCN(C2COC2)CC1 [rilzabrutinib, (R)-2-[3-[4-amino-3-(2-fluoro-4-phenoxy-phenyl)pyrazolo[3,4-d]pyrimidin-1-yl]piperidine-1-carbonyl]-4-methyl-4-[4-(oxetan-3-yl)piperazin-1-yl]pent-2-enenitrile]
Participants with AAS7 = 0, Responder n (%) (400 mg QPM, Week 12, omalizumab-naïve, angioedema at baseline): 6 (22.2) n (%)
LS mean change from baseline in AAS7 at Week 12 (400 mg TID, ITT population, angioedema at baseline): −43.36 points
AAS7 % Change difference for rilzabrutinib vs. placebo LS Mean (95% CI) [1]: −34.55 (−66.00, −3.09) %
AAS7 % Change from baseline LS Mean (SE) [1]: −54.51 (9.77) %
AAS7 Change difference for rilzabrutinib vs. placebo LS Mean (95% CI) [1]: −15.05 (−28.44, −1.67)
AAS7 Change from baseline LS Mean (SE) [1]: −29.55 (4.16)
AAS7 Post-baseline Mean (SD) [1]: 17.50 (22.29)
Non-responder n (%), AAS7 = 0 [2]: 16 (47.1) n (%)
OR (95% CI) for rilzabrutinib vs. placebo, AAS7 = 0 [2]: 2.576
RRD (%) for rilzabrutinib vs. placebo (95% CI), AAS7 = 0 [2]: 21.8 %
Responder n (%), AAS7 = 0 [2]: 18 (52.9) n (%)
AAS7 % Change difference for rilzabrutinib vs. placebo LS Mean (95% CI) [3]: −36.35 (−71.01, −1.69) %
AAS7 % Change from baseline LS Mean (SE) [3]: −53.40 (10.59) %
AAS7 = 0, Non-responder n (%) [3]: 16 (69.6) n (%)
AAS7 = 0, OR (95% CI) for rilzabrutinib vs. placebo [3]: 9.250
AAS7 = 0, RRD (%) for rilzabrutinib vs. placebo (95% CI) [3]: 21.8 %
AAS7 Change difference for rilzabrutinib vs. placebo LS Mean (95% CI) [3]: −16.03 (−30.69, −1.38)
AAS7 Change from baseline LS Mean (SE) [3]: −29.80 (4.48)
AAS7 Post-baseline Mean (SD) [3]: 18.96 (23.24)
Participants with AAS7 = 0, Responder n (%) [3]: 7 (30.4) n (%)
AAS7 % Change from baseline LS Mean (SE) [4]: −60.12 (12.38) %
AAS7 Change difference for rilzabrutinib vs. placebo LS Mean (95% CI) [4]: −11.45 (−23.02, 0.12)
AAS7 Change from baseline LS Mean (SE) [4]: −32.35 (4.37)
AAS7 Post-baseline Mean (SD) [4]: 15.52 (20.15)
Non-responder n (%), AAS7 = 0 [5]: 16 (47.1) n (%)
OR (95% CI) for rilzabrutinib vs. placebo, AAS7 = 0 [5]: 1.556
RRD (%) for rilzabrutinib vs. placebo (95% CI), AAS7 = 0 [5]: 10.2 %
Responder n (%), AAS7 = 0 [5]: 18 (52.9) n (%)
AAS7 % Change difference for rilzabrutinib vs. placebo LS Mean (95% CI) [6]: −22.03 (−57.92, 13.85) %
AAS7 % Change from baseline LS Mean (SE) [6]: −59.25 (13.33) %
AAS7 = 0, Non-responder n (%) [6]: 14 (60.9) n (%)
AAS7 = 0, OR (95% CI) for rilzabrutinib vs. placebo [6]: 1.922
AAS7 = 0, RRD (%) for rilzabrutinib vs. placebo (95% CI) [6]: 12.9 %
AAS7 Post-baseline Mean (SD) [6]: 17.03 (20.90)
Participants with AAS7 = 0, Responder n (%) [6]: 9 (39.1) n (%)
AAS7 % Change difference for rilzabrutinib vs. placebo LS Mean (95% CI) [7]: −24.93 (−66.27, 16.41) %
AAS7 % Change from baseline LS Mean (SE) [7]: −73.45 (15.58) %
AAS7 Change difference for rilzabrutinib vs. placebo LS Mean (95% CI) [7]: −12.00 (−23.87, −0.13)
AAS7 Change from baseline LS Mean (SE) [7]: −36.15 (4.48)
AAS7 Post-baseline Mean (SD) [7]: 13.26 (21.30)
Non-responder n (%), AAS7 = 0 [8]: 12 (35.3) n (%)
OR (95% CI) for rilzabrutinib vs. placebo, AAS7 = 0 [8]: 3.010
RRD (%) for rilzabrutinib vs. placebo (95% CI), AAS7 = 0 [8]: 26.5 %
Responder n (%), AAS7 = 0 [8]: 22 (64.7) n (%)
AAS7 % Change difference for rilzabrutinib vs. placebo LS Mean (95% CI) [9]: −25.10 (−70.77, 20.57) %
AAS7 % Change from baseline LS Mean (SE) [9]: −72.78 (16.93) %
AAS7 = 0, Non-responder n (%) [9]: 11 (47.8) n (%)
AAS7 = 0, OR (95% CI) for rilzabrutinib vs. placebo [9]: 3.063
AAS7 = 0, RRD (%) for rilzabrutinib vs. placebo (95% CI) [9]: 22.5 %
AAS7 Post-baseline Mean (SD) [9]: 14.08 (22.48)
Participants with AAS7 = 0, Responder n (%) [9]: 12 (52.2) n (%)
AAS7 % Change difference for rilzabrutinib vs. placebo LS Mean (95% CI) [10]: −41.77 (−78.55, −4.98) %
AAS7 % Change from baseline LS Mean (SE) [10]: −78.35 (13.78) %
AAS7 Change difference for rilzabrutinib vs. placebo LS Mean (95% CI) [10]: −15.67 (−27.11, −4.22)
AAS7 Change from baseline LS Mean (SE) [10]: −38.27 (4.30)
AAS7 Post-baseline Mean (SD) [10]: 11.20 (15.95)
Non-responder n (%), AAS7 = 0 [11]: 18 (52.9) n (%)
RRD (%) for rilzabrutinib vs. placebo (95% CI), AAS7 = 0 [11]: 1.1 %
Responder n (%), AAS7 = 0 [11]: 16 (47.1) n (%)
